Measured values taken from patent publication US11609221B2, “Method for detecting the presence of a contaminant in a liquid” (priority 2017, dated 2023).
≈ marks a conversion by molar mass, not a printed value.

Key:
[1] = test system: benthic aquatic macroinvertebrates; assay: Toximeter locomotor index monitoring of benthic aquatic macroinvertebrates during contamination episodes; format: in vivo, Gammarus fossarum, Erpobdella testacea, Radix auricularia; details: 100 μg·L^−1, contamination episodes of 20-24 h, even after several episodes; FIG. 3
Protocol: For the purposes of the present invention, “locomotor index” corresponds to an average distance calculated according to the study context (field or laboratory) over the 10% to 80% of the lowest values of individual distances travelled. The locomotor index is the average of these shortest distances. This locomotor index is calculated on an integration time step that can be chosen between 2 and 120 minutes. The values of distances travelled are squared before the index is calculated, so the locomotive index is expressed in mm^2/unit of time.
In the examples, only benthic aquatic macroinvertebrates calibrated in terms of size, sex, non-parasitized, from a single population and housing for two weeks in the laboratory are shown. The benthic aquatic macroinvertebrates are placed in a cage under camera monitoring where 16 individuals are placed alone in a volume of 50 mL of water.
The cage is made of neutral materials (polypropylene) and without the use of toxic products (no glue). These cages (FIG. 1) are connected to a pre-bubbled, thermo-regulated and filtered liquid supply and then circulate in the chamber that receives the effluent at a flow rate of 6 L/h. […]

[2] = test system: Daphnia; details: after 48 h exposure; cited from earlier work

SMILES: CNC(=O)ON=C(C)SC [methomyl]
- time to detect a toxicity of the product (locomotor index) [1]: ≤ 3 h
- LC50 in Daphnia [2]: 0.028 µg/mL (≈ 0.173 µM)
